Assay results published in patent US10233188B2, “CDK2/4/6 inhibitors” (priority 2016, dated 2019).

What was measured:
CDK2/Cyclin E1 = CDK2/Cyclin E1 (Homo sapiens (Human), UniProt P24941); assay: biochemical; settings: CDK2_Ki (nM), phosphorylated CDK2/Cyclin E1, 150 μM ATP, Morrison tight-binding fit
Method: The assay was initiated with the addition of ATP, following a fifteen minutes pre-incubation of enzyme and inhibitor at room temperature in the reaction mixture. The reaction was stopped after 45 minutes at room temperature by the addition of 50 μL of 80 mM EDTA, pH 7.5.

CDK6/Cyclin D1 = CDK6/Cyclin D1 (Homo sapiens (Human), UniProt Q00534); assay: biochemical; settings: CDK6_Ki (nM), non-phosphorylated CDK6/Cyclin D1, 2 mM ATP, Morrison fit
Chain of CDK6/Cyclin D1 (Q00534 whole entry): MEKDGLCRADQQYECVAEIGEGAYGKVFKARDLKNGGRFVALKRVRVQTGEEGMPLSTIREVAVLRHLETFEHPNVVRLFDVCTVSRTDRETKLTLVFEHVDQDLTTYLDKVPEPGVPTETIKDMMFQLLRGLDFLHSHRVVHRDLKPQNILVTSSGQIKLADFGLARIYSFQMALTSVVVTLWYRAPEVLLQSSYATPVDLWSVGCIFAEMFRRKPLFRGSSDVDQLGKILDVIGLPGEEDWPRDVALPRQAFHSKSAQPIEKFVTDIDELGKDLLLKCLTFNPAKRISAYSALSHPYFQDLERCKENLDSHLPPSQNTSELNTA
Chain of CDK6/Cyclin D1 (P24385 whole entry partner): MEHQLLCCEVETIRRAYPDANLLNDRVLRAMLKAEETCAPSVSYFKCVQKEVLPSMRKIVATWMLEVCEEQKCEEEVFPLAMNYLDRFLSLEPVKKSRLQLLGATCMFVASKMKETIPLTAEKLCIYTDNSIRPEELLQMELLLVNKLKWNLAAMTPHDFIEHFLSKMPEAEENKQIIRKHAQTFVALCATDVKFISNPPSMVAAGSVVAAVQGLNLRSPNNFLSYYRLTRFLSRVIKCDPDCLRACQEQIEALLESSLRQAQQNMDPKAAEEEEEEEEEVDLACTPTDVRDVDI

SMILES | Ki (CDK2/Cyclin E1) [nM] | Ki (CDK6/Cyclin D1) [nM]
COCc1cc2cnc(NC3CCN(S(C)(=O)=O)CC3)nc2n([C@H]2CCC[C@H]2C)c1=O [Example 49, 6-(methoxymethyl)-8-[(1S,2R)-2-methylcyclopentyl]-2-{[1-(methylsulfonyl)piperidin-4-yl]amino}pyrido[2,3-d]pyrimidin-7(8H)-one] | 4.43 | 1.63
Cc1cc2cnc(NC3CCN(S(C)(=O)=O)CC3)nc2n(C2CCCCC(O)C2)c1=O (single isomer, unassigned; isomer a) [Example 223, 8-(3-hydroxycycloheptyl)-6-methyl-2-{[1-(methylsulfonyl)piperidin-4-yl]amino}pyrido[2,3-d]pyrimidin-7(8H)-one-Isomer A] | 57.1 | 21
Cc1cc2cnc(NC3CCN(S(C)(=O)=O)CC3)nc2n([C@@H]2C[C@H](O)C[C@@H]2C)c1=O (single isomer, unassigned) [Example 199, (−)-8-[(1R*,2S*,4R*)-4-hydroxy-2-methylcyclopentyl]-6-methyl-2-{[1-(methylsulfonyl)piperidin-4-yl]amino}pyrido[2,3-d]pyrimidin-7(8H)-one] | 2.92 | 1.09
Cn1cc(S(=O)(=O)N2CCC(Nc3ncc4ccc(=O)n([C@H]5CCC[C@]5(C)O)c4n3)CC2)cn1 (single isomer, unassigned) [Example 83, (+)-8-[(1R*,2R*)-2-hydroxy-2-methylcyclopentyl]-2-({1-[(1-methyl-1H-pyrazol-4-yl)sulfonyl]piperidin-4-yl}amino)pyrido[2,3-d]pyrimidin-7(8H)-one] | 1.98 | 9.77
COCCc1cc2cnc(N[C@H]3CCN(S(C)(=O)=O)C[C@@H]3F)nc2n(C2CCCC2)c1=O (single isomer, unassigned) [Example 158, (−)-8-cyclopentyl-2-{[(3S*,4S*)-3-fluoro-1-(methylsulfonyl)piperidin-4-yl]amino}-6-(2-methoxyethyl)pyrido[2,3-d]pyrimidin-7(8H)-one] | 3.89 | 0.66
CS(=O)(=O)N1CCC(Nc2ncc3cc(CC(F)F)c(=O)n([C@@H]4CCC[C@@H](O)C4)c3n2)CC1 [Example 140, 6-(2,2-difluoroethyl)-8-[(1R,3R)-3-hydroxycyclohexyl]-2-{[1-(methylsulfonyl)piperidin-4-yl]amino}pyrido[2,3-d]pyrimidin-7(8H)-one] | 1.97 | 0.63
CS(=O)(=O)N1CCC(Nc2ncc3cc(N)c(=O)n(C4CCCC4)c3n2)CC1 [Example 28, 6-amino-8-cyclopentyl-2-{[1-(methylsulfonyl)piperidin-4-yl]amino}pyrido[2,3-d]pyrimidin-7(8H)-one] | 1.88 | 1.2
CS(=O)(=O)N1CCC(Nc2ncc3ccc(=O)n([C@H]4CCC[C@H](O)C4)c3n2)CC1 [Example 211, 8-[(1S,3S)-3-hydroxycyclohexyl]-2-{[1-(methylsulfonyl)piperidin-4-yl]amino}pyrido[2,3-d]pyrimidin-7(8H)-one] | 2.19 | 2.22
C[C@@H]1CCC[C@@H]1n1c(=O)c(CO)cc2cnc(NC3CCN(S(C)(=O)=O)CC3)nc21 [Example 51, 6-(hydroxymethyl)-8-[(1S,2R)-2-methylcyclopentyl]-2-{[1-(methylsulfonyl)piperidin-4-yl]amino}pyrido[2,3-d]pyrimidin-7(8H)-one] | 1.74 | 0.13
Cc1cc2cnc(NC3CCN(S(C)(=O)=O)CC3)nc2n(C2CCCCC(O)C2)c1=O (single isomer, unassigned; isomer d) [Example 226, 8-(3-hydroxycycloheptyl)-6-methyl-2-{[1-(methylsulfonyl)piperidin-4-yl]amino}pyrido[2,3-d]pyrimidin-7(8H)-one-Isomer D] | 310 | 6.58
Cc1cc2cnc(NC3CCN(S(=O)(=O)CC4CC4)CC3)nc2n([C@H]2CCC[C@]2(C)O)c1=O (single isomer, unassigned) [Example 117, (+)-2-({1-[(cyclopropylmethyl)sulfonyl]piperidin-4-yl}amino)-8-[(1R*,2R*)-2-hydroxy-2-methylcyclopentyl]-6-methylpyrido[2,3-d]pyrimidin-7(8H)-one] | 1.74 | 2.46

Now those with a lower Ki (CDK2/Cyclin E1), led by results:

Ki (CDK2/Cyclin E1) [nM] | Ki (CDK6/Cyclin D1) [nM] | SMILES
0.67 | 2.99 | CNS(=O)(=O)N1CCC(Nc2ncc3ccc(=O)n(C4CCCC4)c3n2)CC1 [Example 11, 4-[(8-cyclopentyl-7-oxo-7,8-dihydropyrido[2,3-d]pyrimidin-2-yl)amino]-N-methylpiperidine-1-sulfonamide]
1.47 | 5.73 | C[C@]1(O)CCC[C@@H]1n1c(=O)c(Cl)cc2cnc(NC3CCN(S(N)(=O)=O)CC3)nc21 (single isomer, unassigned) [Example 129, (+)-4-({6-chloro-8-[(1R*,2R*)-2-hydroxy-2-methylcyclopentyl]-7-oxo-7,8-dihydropyrido[2,3-d]pyrimidin-2-yl}amino)piperidine-1-sulfonamide]
0.76 | 6.14 | C[C@]1(O)CCC[C@@H]1n1c(=O)c(CCO)cc2cnc(NC3CCN(S(C)(=O)=O)CC3)nc21 (single isomer, unassigned) [Example 123, (+)-6-(2-hydroxyethyl)-8-[(1R*,2R*)-2-hydroxy-2-methylcyclopentyl]-2-{[1-(methylsulfonyl)piperidin-4-yl]amino}pyrido[2,3-d]pyrimidin-7(8H)-one]
0.21 | 2.47 | CC(F)(F)CNS(=O)(=O)N1CCC(Nc2ncc3ccc(=O)n([C@@H]4CCC[C@@]4(C)O)c3n2)CC1 (single isomer, unassigned) [Example 66, (−)-N-(2,2-difluoropropyl)-4-({8-[(1R*,2R*)-2-hydroxy-2-methylcyclopentyl]-7-oxo-7,8-dihydropyrido[2,3-d]pyrimidin-2-yl}amino)piperidine-1-sulfonamide]
0.12 | 0.53 | C[C@@]1(O)CCC[C@H]1n1c(=O)c(Cl)cc2cnc(NC3CCN(S(N)(=O)=O)CC3)nc21 (single isomer, unassigned) [Example 128, (−)-4-({6-chloro-8-[(1R*,2R*)-2-hydroxy-2-methylcyclopentyl]-7-oxo-7,8-dihydropyrido[2,3-d]pyrimidin-2-yl}amino)piperidine-1-sulfonamide]
1.51 | 2.65 | CS(=O)(=O)N1CCC(Nc2ncc3cc(CCO)c(=O)n(C4CCCCCC4)c3n2)CC1 [Example 165, 8-cycloheptyl-6-(2-hydroxyethyl)-2-{[1-(methylsulfonyl)piperidin-4-yl]amino}-pyrido[2,3-d]pyrimidin-7(8H)-one]
0.12 | 0.24 | COCCS(=O)(=O)N1CCC(Nc2ncc3ccc(=O)n([C@@H]4CCC[C@@H]4C)c3n2)CC1 [Example 52, 2-({1-[(2-methoxyethyl)sulfonyl]piperidin-4-yl}amino)-8-[(1R,2S)-2-methylcyclopentyl]pyrido[2,3-d]pyrimidin-7(8H)-one]
0.42 | 1.95 | CNS(=O)(=O)N1CCC(Nc2ncc3ccc(=O)n(C4CCCCCC4)c3n2)CC1 [Example 20, 4-[(8-cycloheptyl-7-oxo-7,8-dihydropyrido[2,3-d]pyrimidin-2-yl)amino]-N-methylpiperidine-1-sulfonamide]
0.42 | 1.09 | COCCS(=O)(=O)N1CCC(Nc2ncc3ccc(=O)n([C@@H]4CCCC4(C)O)c3n2)CC1 (single isomer, unassigned) [Example 72, (−)-8-[(1R*,2R*)-2-hydroxy-2-methylcyclopentyl]-2-({1-[(2-methoxyethyl)sulfonyl]piperidin-4-yl}amino)pyrido[2,3-d]pyrimidin-7(8H)-one]
1.09 | 3.79 | CS(=O)(=O)N1CCC(Nc2ncc3ccc(=O)n([C@H]4CC[C@H](O)C4)c3n2)CC1 (single isomer, unassigned) [Example 53, (+)-8-[(1R*,3R*)-3-hydroxycyclopentyl]-2-{[1-(methylsulfonyl)piperidin-4-yl]amino}pyrido[2,3-d]pyrimidin-7(8H)-one]
0.5 | 0.75 | C[C@@H]1[C@@H](O)CC[C@@H]1n1c(=O)ccc2cnc(NC3CCN(S(C)(=O)=O)CC3)nc21 (single isomer, unassigned) [Example 209, (+)-8-[(1R*,2R*,3R*)-3-hydroxy-2-methylcyclopentyl]-2-{[1-(methylsulfonyl)piperidin-4-yl]amino}pyrido[2,3-d]pyrimidin-7(8H)-one]
0.08 | 0.92 | Cn1cnc(S(=O)(=O)N2CCC(Nc3ncc4ccc(=O)n([C@@H]5CCC[C@@]5(C)O)c4n3)CC2)c1 (single isomer, unassigned) [Example 84, (−)-8-[(1R*,2R*)-2-hydroxy-2-methylcyclopentyl]-2-({1-[(1-methyl-1H-imidazol-4-yl)sulfonyl]piperidin-4-yl}amino)pyrido[2,3-d]pyrimidin-7(8H)-one]
1.57 | 0.45 | CS(=O)(=O)N1CCC(Nc2ncc3cc(CC(=O)O)c(=O)n(C4CCCC4)c3n2)CC1 [Example 147, (8-cyclopentyl-2-{[1-(methylsulfonyl)piperidin-4-yl]amino}-7-oxo-7,8-dihydropyrido[2,3-d]pyrimidin-6-yl)acetic acid]
1.2 | 1.98 | CC(C)(O)CS(=O)(=O)N1CCC(Nc2ncc3ccc(=O)n([C@@H]4CCC[C@@]4(C)O)c3n2)CC1 [Example 189, 8-[(1R,2R)-2-hydroxy-2-methylcyclopentyl]-2-({1-[(2-hydroxy-2-methylpropyl)sulfonyl]piperidin-4-yl}amino)pyrido[2,3-d]pyrimidin-7(8H)-one]
0.16 | 0.11 | Cc1cc2cnc(NC3CCN(S(=O)(=O)C4CCS(=O)(=O)C4)CC3)nc2n([C@@H]2CCC[C@@]2(C)O)c1=O (single isomer, unassigned; isomer a) [Example 106, (−)-2-[(1-{[(3ξ)-1,1-dioxidotetrahydrothiophen-3-yl]sulfonyl}piperidin-4-yl)amino]-8-[(1R*,2R*)-2-hydroxy-2-methylcyclopentyl]-6-methylpyrido[2,3-d]pyrimidin-7(8H)-one-Isomer A]
